molecular target: PIK3CD (Human) (UniProt O00329); experiment: Assessment of PIK3CD Kinase Activity
Sequence (O00329 whole entry, looked up): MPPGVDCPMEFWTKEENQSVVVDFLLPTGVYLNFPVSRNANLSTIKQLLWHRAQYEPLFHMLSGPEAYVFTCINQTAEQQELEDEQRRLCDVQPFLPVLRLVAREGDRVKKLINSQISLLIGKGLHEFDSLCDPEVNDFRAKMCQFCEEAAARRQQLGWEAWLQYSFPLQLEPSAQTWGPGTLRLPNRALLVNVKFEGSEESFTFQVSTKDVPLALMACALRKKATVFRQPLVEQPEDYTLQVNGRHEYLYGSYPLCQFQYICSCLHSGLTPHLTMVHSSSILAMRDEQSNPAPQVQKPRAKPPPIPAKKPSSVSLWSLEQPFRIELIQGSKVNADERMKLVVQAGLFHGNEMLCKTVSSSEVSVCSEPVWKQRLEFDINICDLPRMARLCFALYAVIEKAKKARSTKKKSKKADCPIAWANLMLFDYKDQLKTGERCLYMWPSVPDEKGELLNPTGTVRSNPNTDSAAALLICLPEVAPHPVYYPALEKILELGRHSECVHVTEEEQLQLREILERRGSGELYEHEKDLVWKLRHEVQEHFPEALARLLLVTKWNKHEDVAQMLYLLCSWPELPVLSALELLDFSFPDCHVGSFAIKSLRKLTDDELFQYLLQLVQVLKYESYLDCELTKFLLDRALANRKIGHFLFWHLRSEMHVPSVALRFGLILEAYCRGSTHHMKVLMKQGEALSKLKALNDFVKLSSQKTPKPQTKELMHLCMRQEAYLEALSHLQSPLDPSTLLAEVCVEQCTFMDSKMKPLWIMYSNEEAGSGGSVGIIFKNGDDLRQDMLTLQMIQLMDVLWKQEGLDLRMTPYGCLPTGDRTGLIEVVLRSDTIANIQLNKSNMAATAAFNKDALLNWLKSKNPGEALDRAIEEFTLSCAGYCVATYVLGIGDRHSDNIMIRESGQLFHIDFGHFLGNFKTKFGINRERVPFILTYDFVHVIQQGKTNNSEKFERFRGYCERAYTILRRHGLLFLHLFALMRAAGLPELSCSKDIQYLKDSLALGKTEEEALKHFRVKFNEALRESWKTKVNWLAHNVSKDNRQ

| Compound | IC50 [nM] |
| --- | --- |
| COc1c(C(C)Nc2ncnc3[nH]cnc23)cc(Cl)c(C)c1-c1cnn(C2(CC#N)CC(C#N)C2)c1 (stereo not given) | < 50 |
| COc1c(C(C)Nc2ncnc3[nH]cnc23)cc(Cl)c(C)c1-c1ccc(C(=O)N2CCC(O)CC2)c(F)c1 (stereo not given) | < 50 |
| COc1c(C(C)Nc2ncnc3[nH]cnc23)cc(Cl)c(C)c1C1CNC(=O)C1 (stereo not given) | < 50 |
| COc1c(C(C)Nc2ncnc3[nH]cnc23)cc(Cl)c(C)c1-c1ccc(C(=O)N2CCOCC2)c(F)c1 (stereo not given) | < 50 |
| COc1ncc(-c2cc(Cl)cc(C(C)Nc3ncnc4[nH]cnc34)c2OC)cn1 (stereo not given) | 100 to 250 |
| COc1c(-c2ccncc2)cc(Cl)cc1C(C)Nc1ncnc2[nH]cnc12 (stereo not given) | 50 to 100 |
| COc1c(C(C)Nc2ncnc3[nH]cnc23)cc(Cl)c(C)c1-c1ccc(C(=O)NC2CCC2)c(F)c1 (stereo not given) | < 50 |
| COc1c(C(C)Nc2ncnc3[nH]cnc23)cc(Cl)c(C)c1-c1cncc(C#N)c1 (stereo not given) | < 50 |
| COc1c(C(C)Nc2ncnc3[nH]cnc23)cc(Cl)c(F)c1C1=CCN(S(C)(=O)=O)CC1 (stereo not given) | < 50 |
| CNC(=O)c1ccc(-c2c(C)c(Cl)cc(C(C)Nc3ncnc4[nH]cnc34)c2OC)cc1F (stereo not given) | < 50 |
| COc1c(-c2cncnc2)cc(Cl)cc1C(C)Nc1ncnc2[nH]cnc12 (stereo not given) | 50 to 100 |
| CCOc1c(C(C)Nc2ncnc3[nH]cnc23)cc(Cl)c(C#N)c1C1CN(C(C)C)C1 (stereo not given) | < 50 |
| COc1c(-c2ccc(NC(C)=O)cc2)cc(Cl)cc1C(C)Nc1ncnc2[nH]cnc12 (stereo not given) | 50 to 100 |
| COc1c(C(C)Nc2ncnc3[nH]cnc23)cc(Cl)c(C)c1C1CC(=O)N(C)C1 (stereo not given) | < 50 |
| COc1c(-c2ccnn2C)cc(Cl)cc1C(C)Nc1ncnc2[nH]cnc12 (stereo not given) | 50 to 100 |
